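Cells were grown in 96-well plates and exposed to each compound for 48 hours at five concentrations; endpoints were interpolated linearly between bracketing concentrations, or set to the highest concentration if not reached. TGI is the concentration that stops growth completely.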
Tests used:
Experiment in all cases: NCI anticancer screen, dose series, 48 h
[1] = test system: SF-539 CNS
[2] = test system: NCI-H23 lung
[3] = test system: SK-MEL-28 melanoma
[4] = test system: MDA-MB-231 breast
[5] = test system: HS 578T breast
[6] = test system: SW-620 colon
[7] = test system: M14 melanoma
[8] = test system: OVCAR-3 ovarian
[9] = test system: T-47D breast
[10] = test system: A498 renal

Row | SMILES | TGI [1] [µM] | TGI [2] [µM] | TGI [3] [µM] | TGI [4] [µM] | TGI [5] [µM] | TGI [6] [µM] | TGI [7] [µM] | TGI [8] [µM] | TGI [9] [µM] | TGI [10] [µM]
1 | CN(CCCCCl)P(=O)(OCc1ccc([N+](=O)[O-])o1)OCC1OC(n2ccc(N)nc2=O)C(O)C1O (stereo not drawn) | 38.9 | 33.1 | > 100 | 67.3 | 6.46 | 69.6 | > 100 | 17.2 | 7.71 | –
2 | CCN(CC)C(=S)SC(C(=O)Nc1nnc(-c2ccc(Cl)cc2)o1)c1ccccc1 (stereo not drawn) | 30.5 | > 100 | 33.5 | 77.7 | > 100 | 35.9 | 27.6 | 10.2 | 59.7 | 41.4
3 | CC(C)(CO[C@H]1C[C@H]2CC[C@@]1(C)C2(C)C)[N+](=O)[O-] | 32.1 | 65.6 | 34.9 | 34.6 | 55.9 | 59.8 | 27.1 | 56.5 | 45.6 | 51.8
4 | COC(=O)c1sc(=O)sc1SCc1cccc(CSc2sc(=O)sc2C(=O)OC)c1 | – | > 100 | > 100 | 67.4 | > 100 | > 100 | > 100 | > 100 | > 100 | > 100
5 | COc1cccc2c1C(=O)c1c(O)c3c(c(O)c1C2=O)C[C@@](O)(C(C)=O)CC3OC1CC(OC2CC(N)C(O)C(C)O2)C(O)C(C)O1 (stereo partly drawn) | > 76.8 | > 100 | > 100 | > 100 | > 100 | > 100 | > 100 | > 100 | > 100 | > 100
6 | N[C@@H](CCC(=O)NC(Cc1ccccc1)C(=O)NCP(=O)(O)O)C(=O)O (stereo partly drawn) | > 100 | > 100 | > 100 | > 100 | > 100 | > 100 | – | > 100 | > 100 | > 100
7 | Clc1ccc2c(c1)N(CCCN1CCCC13CCCCC3)c1ccccc1S2 | 33.4 | 44.2 | 30.3 | 21.5 | 34.2 | 40.7 | 27.3 | 34.4 | 30 | 33.2
8 | COc1cc2c[n+]3c4c(c2c(OC)c1OC)CCCC4CC3 (stereo not drawn) | – | > 100 | > 100 | > 100 | 62.3 | > 100 | > 100 | > 100 | > 100 | > 100
9 | O=C1NC(O)c2cc3ccccc3cc2O1 (stereo not drawn) | 89.9 | > 100 | > 100 | > 100 | > 100 | > 100 | > 100 | 88.5 | > 100 | –
10 | CC1=C(C)C(=O)C(C2=CC(=O)c3ccccc3C2=O)=C(C2=CC(=O)c3ccccc3C2=O)C1=O | > 100 | 45.5 | 23.5 | 13.4 | > 100 | > 33.9 | > 40.8 | – | 45.1 | 50.8
11 | O=C(O)CSC(CC(=O)c1ccc(Cl)cc1)c1ccc(Cl)cc1 (stereo not drawn) | > 100 | > 100 | – | > 100 | > 100 | > 100 | > 100 | 50 | 98.4 | > 100

From PubChem BioAssay (NCI)
